Data reported in ChEMBL document CHEMBL4689842, “EUbOPEN Chemogenomics Library wave 1” (2021).

Test system: U2OS
Assay: Incucyte cell viability with U2OS; note: filed as whole numbers so only -1 and 0 and 1 occur
Assay type: toxicity, cell-based
Settings: human, 10 µM, compound concentration 10 uM
[1] = 0 h, replicate number 1, timepoint 0 hours
[2] = 6 h, replicate number 1, timepoint 6 hours
[3] = 12 h, replicate number 1, timepoint 12 hours
[4] = 18 h, replicate number 1, timepoint 18 hours
[5] = 24 h, replicate number 1, timepoint 24 hours
[6] = 0 h, replicate number 2, timepoint 0 hours
[7] = 6 h, replicate number 2, timepoint 6 hours
[8] = 12 h, replicate number 2, timepoint 12 hours
[9] = 18 h, replicate number 2, timepoint 18 hours
[10] = 24 h, replicate number 2, timepoint 24 hours

Structure (SMILES) | Growth Rate [1] | Growth Rate [2] | Growth Rate [3] | Growth Rate [4] | Growth Rate [5] | Growth Rate [6] | Growth Rate [7] | Growth Rate [8] | Growth Rate [9] | Growth Rate [10]
CN1CCN(c2ccc(OC(F)(F)F)c(Nc3ncc4c(n3)-c3c(c(C(N)=O)nn3CCO)CC4)c2)CC1 [ONVANSERTIB] | 0 | 0 | 0 | 0 | 0 |  |  |  |  | 
CCN(CC)CCCCNc1ncc2cc(-c3cc(OC)cc(OC)c3)c(NC(=O)NC(C)(C)C)nc2n1 [PD-173074] | 1 | 0 | 0 | 0 | 0 | 0 | 1 | 1 | 1 | 
Cc1nc(Nc2n[nH]c3c2CN(C(=O)N[C@H](CN(C)C)c2ccccc2)C3(C)C)c2sccc2n1 [PF-03758309] | 1 | 0 | 0 | 0 | 0 |  |  |  |  | 
CN1CCN(CCOc2cc(OC3CCOCC3)c3c(Nc4c(Cl)ccc5c4OCO5)ncnc3c2)CC1 [SARACATINIB] |  | 0 | 0 | 0 | 0 |  |  | 1 | 1 | 1
Cc1nc(-c2ccc(-c3ccc(C(=O)N4CCc5cc6c(cc54)C4(CCN(C)CC4)CO6)cc3)c(C)c2)no1 [SB-224289] |  |  |  | 1 | 1 | 0 | 1 | 1 |  | 0
O=C1NCN(c2ccccc2)C12CCN(CCCOc1ccc(F)cc1)CC2 [SPIRAMIDE] | 0 |  | 0 | 0 | 0 |  | 1 |  |  | 
Nc1c(C(=O)NCc2ccc(C(=O)NCCCC3CCCCC3)cc2)cnn1-c1ccccc1 [SR-318] |  | 1 | 1 | 1 | 1 | 0 |  |  |  | 
O=C(NCCCC1CCCCC1)c1ccc(CNC(=O)c2cnn(-c3ccccc3)c2C(F)(F)F)cc1 [SR-321] | 0 | 1 | 1 | 1 | 1 |  | 0 |  |  | 
Cc1nc(-c2cn3c(n2)-c2ccc(-c4cnn(C(C)(C)C(N)=O)c4)cc2OCC3)n(C(C)C)n1 [TASELISIB] | 0 | 0 | 1 | 0 | 0 |  |  |  | 1 | 
COc1cccc([C@@H](C)NCCCc2ccccc2Cl)c1.Cl [TECALCET HYDROCHLORIDE] | 0 |  | 1 | 1 | 1 |  | 0 |  |  | 0
Cl.N#Cc1ccc2[nH]cc(CCCCN3CCN(c4ccc5oc(C(N)=O)cc5c4)CC3)c2c1 [VILAZODONE HYDROCHLORIDE] | 0 |  | 1 | 0 | 0 |  | 1 | 0 |  | 
